Laboratory results taken from patent publication EP2401611B1, “IMPROVED METHODS FOR IDENTIFICATION” (Cambridge Enterprise Limited, priority 2009, dated 2010).

What was measured:
TNF-alpha = assay: Sub-lethal endotoxemia model (LPS challenge, serum TNF-alpha); format: in vivo, mouse; conditions: very high / highest doses
Description: We selected the sub-lethal endotoxemia model in mouse, because this has been well characterised in our laboratory (see for example Fox et al. (2002) J. Med. Chem. 45:360-70; Fox et al. (2005) J. Med. Chem. 48:867-74). The extent of systemic inflammation in response to a single intraperitoneal injection of bacterial lipopolysaccharide (LPS) can be estimated by measuring serum TNF-alpha 2 hours post challenge.
Methods: Mice (CD1 strain; adult males; 6 per group) were treated with BSCI (in an appropriate vehicle) or with vehicle alone by an appropriate route. […] Simultaneously, one set of mice at each BSCI concentration received BIM 23627 at 4mg/animal (120mg/kg) by sub-cutaneous injection (a treatment condition known to suppress classical sstr2-mediated signalling, such as GH release, in rats; Tulipano et al. (2002) 143:1218-24). Between 30mins and 1hour after dosing (a period when a maximal plasma concentration of BSCI has been achieved), the inflammatory challenge was elicited by intraperitoneal injection of 750µg of LPS (Sigma; L4130 lot#024K4077; 900,000 EU/mg).
After a further 2 hours, the animals were sacrificed by CO2 asphyxiation, and blood was drawn by cardiac puncture. Serum was prepared by conventional methods, and the level of TNF-alpha in serum was measured using an ELISA (R&D Systems; Murine Quantikine code# MTA00) performed in accordance with the manufacturer's instructions.

THP-1 cells = assay: MCP-1 induced THP-1 cell migration (Transwell) assay; format: cell-based, human
Description: In principle, this assay consists of two chambers separated by a porous membrane. The chemoattractant is placed in the lower compartment and the cells are placed in the upper compartment.
The method was performed essentially as previously described (Reckless & Grainger (1999) Biochem. J. 340:803-11).
First, the cell suspension to be placed in the upper compartment was prepared.
Next, the chemoattractant solution to be placed in the lower compartment was prepared. […] Note that, as recommended by Frow et al (Med. Res. Rev. 24:276-98) this is the concentration of MCP-1 which induces maximal migration in this system. This solution was divided into three pots, as for the cell suspension.
Once the chemoattractant solutions for the lower wells and cell solutions for the upper chambers were prepared, the migration chamber was assembled. […] Assays were performed with at least triplicate determinations of each condition. Once all the lower chambers were filled, the porous membrane was applied to the chamber in accordance with the manufacturer's instructions. […] A plastic lid was placed over the entire apparatus to prevent evaporation.
This procedure caused any cells adhering to the underside of the membrane to fall into the lower chamber.
The number of cells migrated into the lower chamber under each condition can then be determined by a number of methods, including direct counting, labelling with fluorescent or radioactive markers or through the use of a vital dye. Typically, we utilised the vital dye MTT.

Compound | inhibition of TNF-alpha (TNF-alpha) | ED50 for inhibition of chemokine-induced THP-1 cell migration (THP-1 cells) [nM] | ED50 (THP-1 cells; Table 2, inhibition of MCP-1 induced THP-1 cell migration) [nM] | Max effect (THP-1 cells; Table 2, maximum inhibition at the highest dose tested (1-10µM)) | maximal inhibition of leukocyte migration (THP-1 cells; even at maximal / very high doses) [%]
C[C@@H]1C[C@H]2[C@@H]3CCC4=CC(=O)C=C[C@]4(C)[C@@]3(F)[C@@H](O)C[C@]2(C)[C@@]1(O)C(=O)CO [dexamethasone] | more than 90% |  |  |  | 
Cortistatin |  | ~75 | 75 | 40-60% | ~50
